System: 885724-159-R-J1-PDC KRAS PDC multicell spheroid viability
Assay: Anticancer human tumor 885724-159-R-J1-PDC patient-derived pancreatic adenocarcinoma cell line growth inhibition [KRAS2]
Conditions: for IC50: curve of first compound; for viability, T/C: stronger effect = lower value
Procedure, shortened: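 KRAS-mutant tumor cells were grown as spheroids with HUVEC endothelial cells and human MSCs as stroma. Targeted agents were tested alone and with KRAS pathway inhibitors. Doses started at or near clinical Cmax, or 10 microM, descending half-log.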

[1] = second compound 0.1 µM, first compound 0.0316 µM
[2] = second compound 0.1 µM, first compound 0.1 µM
[3] = second compound 0.1 µM, first compound 0.316 µM
[4] = second compound 0.1 µM, first compound 1 µM
[5] = second compound 0.1 µM, first compound 3.16 µM
[6] = second compound 0.1 µM, first compound 10 µM
[7] = second compound 0.316 µM, first compound 0.0316 µM
[8] = second compound 0.316 µM, first compound 0.1 µM
[9] = second compound 0.316 µM, first compound 0.316 µM
[10] = second compound 0.316 µM, first compound 1 µM
[11] = second compound 0.316 µM, first compound 3.16 µM
[12] = second compound 0.316 µM, first compound 10 µM
[13] = second compound 1 µM, first compound 0.0316 µM
[14] = second compound 1 µM, first compound 0.1 µM
[15] = second compound 1 µM, first compound 0.316 µM
[16] = second compound 1 µM, first compound 1 µM
[17] = second compound 1 µM, first compound 3.16 µM
[18] = second compound 1 µM, first compound 10 µM
[19] = second compound 3.16 µM, first compound 0.0316 µM
[20] = second compound 3.16 µM, first compound 0.1 µM
[21] = second compound 3.16 µM, first compound 0.316 µM
[22] = second compound 3.16 µM, first compound 1 µM
[23] = second compound 3.16 µM, first compound 3.16 µM
[24] = second compound 3.16 µM, first compound 10 µM
[25] = second compound 10 µM, first compound 0.0316 µM
[26] = second compound 10 µM, first compound 0.1 µM
[27] = second compound 10 µM, first compound 0.316 µM
[28] = second compound 10 µM, first compound 1 µM
[29] = second compound 10 µM, first compound 3.16 µM
[30] = second compound 10 µM, first compound 10 µM
[31] = second compound 0.1 µM, first compound 0.01 µM
[32] = second compound 0.316 µM, first compound 0.01 µM
[33] = second compound 1 µM, first compound 0.01 µM
[34] = second compound 3.16 µM, first compound 0.01 µM
[35] = second compound 10 µM, first compound 0.01 µM
[36] = second compound 0.1 µM, first compound 0.00316 µM
[37] = second compound 0.316 µM, first compound 0.00316 µM
[38] = second compound 1 µM, first compound 0.00316 µM
[39] = second compound 3.16 µM, first compound 0.00316 µM
[40] = second compound 10 µM, first compound 0.00316 µM
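Further: spheroids exposed to agents for 7 days before readout.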

Row | Structure (SMILES) | IC50 (second compound 0.1 µM) | IC50 (second compound 0.316 µM) | IC50 (second compound 1 µM) | IC50 (second compound 3.16 µM) | IC50 (second compound 10 µM) | viability, T/C [1] | viability, T/C [2] | viability, T/C [3] | viability, T/C [4] | viability, T/C [7] | viability, T/C [8] | viability, T/C [9] | viability, T/C [10] | viability, T/C [13] | viability, T/C [14] | viability, T/C [15] | viability, T/C [19] | viability, T/C [20] | viability, T/C [25] | viability, T/C [26] | further results
1 | CC(C)NCC(C(=O)N1CCN(c2ncnc3c2C(C)CC3O)CC1)c1ccc(Cl)cc1 (stereo not given) + COc1cc2nc(C)nc(NC(C)c3cc(N)cc(C(F)(F)F)c3)c2cc1OC1CCOC1 | > 10 µM | > 10 µM | > 10 µM | 8.31 µM | < 0.0316 µM | 86.3% | 77.1% | 75.7% | 71.6% | 88.8% | 87.2% | 70.5% | 70.3% | 86.4% | 77.5% | 69.1% | 76.7% | 72.3% | 39.2% | 37.5% | viability, T/C [5]: 74.6%; viability, T/C [6]: 56.8%; viability, T/C [11]: 75.7%; viability, T/C [12]: 57.7%; viability, T/C [16]: 70.8%; viability, T/C [17]: 71.6%; viability, T/C [18]: 56.4%; viability, T/C [21]: 66%; viability, T/C [22]: 71.3%; viability, T/C [23]: 76.9%; viability, T/C [24]: 45.8%; viability, T/C [27]: 26.9%; viability, T/C [28]: 20.8%; viability, T/C [29]: 11.5%; viability, T/C [30]: 6.18%
2 | CC1COCCN1c1cc(-c2ccnn2C)c2ccnc(-c3ccn[nH]3)c2n1 (stereo not given) + COc1cc2nc(C)nc(NC(C)c3cc(N)cc(C(F)(F)F)c3)c2cc1OC1CCOC1 | 2.72 µM | > 3.16 µM | > 3.16 µM | > 3.16 µM | < 0.01 µM | 91.6% | 71.5% | 62.5% | 49.1% | 94.3% | 70% | 63% | 52% | 88.4% | 73.5% | 60.6% | 89.2% | 71.3% | 51.7% | 49.4% | viability, T/C [31]: 99.4%; viability, T/C [5]: 50.9%; viability, T/C [32]: 101%; viability, T/C [11]: 53.9%; viability, T/C [33]: 111%; viability, T/C [16]: 56%; viability, T/C [17]: 58.4%; viability, T/C [34]: 97.3%; viability, T/C [21]: 61.9%; viability, T/C [22]: 59.2%; viability, T/C [23]: 52.9%; viability, T/C [35]: 46%; viability, T/C [27]: 34.2%; viability, T/C [28]: 41.9%; viability, T/C [29]: 32.2%
3 | CC1OCC2(CCN(c3cnc(Sc4ccnc(N)c4Cl)c(N)n3)CC2)C1N (stereo not given) + COc1cc2nc(C)nc(NC(C)c3cc(N)cc(C(F)(F)F)c3)c2cc1OC1CCOC1 | > 10 µM | > 10 µM | > 10 µM | > 10 µM | < 0.0316 µM | 90% | 84.8% | 76.7% | 67.1% | 93.4% | 82.7% | 73.2% | 67.6% | 83.4% | 82.5% | 70% | 76.5% | 73.1% | 22.7% | 21.7% | viability, T/C [5]: 62.1%; viability, T/C [6]: 53.7%; viability, T/C [11]: 57.2%; viability, T/C [12]: 54.7%; viability, T/C [16]: 62.7%; viability, T/C [17]: 57%; viability, T/C [18]: 51.4%; viability, T/C [21]: 69.6%; viability, T/C [22]: 59%; viability, T/C [23]: 55.1%; viability, T/C [24]: 51.6%; viability, T/C [27]: 19.5%; viability, T/C [28]: 13.1%; viability, T/C [29]: 13.5%; viability, T/C [30]: 5.33%
4 | CCN1CCN(Cc2ccc(Nc3ncc(F)c(-c4cc(F)c5nc(C)n(C(C)C)c5c4)n3)nc2)CC1 + COc1cc2nc(C)nc(NC(C)c3cc(N)cc(C(F)(F)F)c3)c2cc1OC1CCOC1 | > 1 µM | > 1 µM | > 1 µM | > 1 µM | < 0.00316 µM | 84.2% | 80.7% | 80.7% | 86.1% | 79.9% | 79% | 75.2% | 76.6% | 78.6% | 73.2% | 72.4% | 76% | 63% | 28.3% | 36.6% | viability, T/C [36]: 88.8%; viability, T/C [31]: 89.7%; viability, T/C [37]: 96.3%; viability, T/C [32]: 86.2%; viability, T/C [38]: 90%; viability, T/C [33]: 86.9%; viability, T/C [16]: 80.8%; viability, T/C [39]: 80.3%; viability, T/C [34]: 91.6%; viability, T/C [21]: 71.5%; viability, T/C [22]: 73.1%; viability, T/C [40]: 38.2%; viability, T/C [35]: 35.9%; viability, T/C [27]: 17.6%; viability, T/C [28]: 7.18%
5 | CCNC(=O)CC1N=C(c2ccc(Cl)cc2)c2cc(OC)ccc2-n2c(C)nnc21 (stereo not given) + COc1cc2nc(C)nc(NC(C)c3cc(N)cc(C(F)(F)F)c3)c2cc1OC1CCOC1 | 2.35 µM | 3.08 µM | 2.49 µM | 0.952 µM | < 0.0316 µM | 99.4% | 91.5% | 75.2% | 53.8% | 101% | 89.6% | 76.4% | 57% | 95.9% | 94.4% | 72% | 94.6% | 99.6% | 34.8% | 22.4% | viability, T/C [5]: 50%; viability, T/C [6]: 45.7%; viability, T/C [11]: 51.7%; viability, T/C [12]: 44.8%; viability, T/C [16]: 55.9%; viability, T/C [17]: 49.1%; viability, T/C [18]: 46.9%; viability, T/C [21]: 69.1%; viability, T/C [22]: 54.3%; viability, T/C [23]: 47.8%; viability, T/C [24]: 44.6%; viability, T/C [27]: 16.5%; viability, T/C [28]: 14.1%; viability, T/C [29]: 20.1%; viability, T/C [30]: 12.4%
6 | Cn1ncnc1[C@H]1c2n[nH]c(=O)c3cc(F)cc(c23)N[C@@H]1c1ccc(F)cc1 + COc1cc2nc(C)nc(NC(C)c3cc(N)cc(C(F)(F)F)c3)c2cc1OC1CCOC1 | > 0.1 µM | > 0.1 µM | > 0.1 µM | > 0.1 µM | < 0.000316 µM | 92.1% | 93.4% |  |  | 94.5% | 91.3% |  |  | 102% | 85.5% |  | 94.3% | 83.1% | 34.2% | 30.4% | viability, T/C (second compound 0.1 µM, first compound 0.000316 µM): 104%; viability, T/C (second compound 0.1 µM, first compound 0.001 µM): 101%; viability, T/C [36]: 102%; viability, T/C [31]: 96.2%; viability, T/C (second compound 0.316 µM, first compound 0.000316 µM): 96.3%; viability, T/C (second compound 0.316 µM, first compound 0.001 µM): 102%; viability, T/C [37]: 98.6%; viability, T/C [32]: 98.3%; viability, T/C (second compound 1 µM, first compound 0.000316 µM): 98.2%; viability, T/C (second compound 1 µM, first compound 0.001 µM): 96.5%; viability, T/C [38]: 92.4%; viability, T/C [33]: 94.3%; viability, T/C (second compound 3.16 µM, first compound 0.000316 µM): 91.8%; viability, T/C (second compound 3.16 µM, first compound 0.001 µM): 97.9%; viability, T/C [39]: 90.5%; viability, T/C [34]: 88.5%; viability, T/C (second compound 10 µM, first compound 0.000316 µM): 42.1%; viability, T/C (second compound 10 µM, first compound 0.001 µM): 44.8%; viability, T/C [40]: 20.7%; viability, T/C [35]: 48.3%
